Laboratory results: ChEMBL document CHEMBL1131105, “Anthracene-9,10-diones as potential anticancer agents: bacterial mutation studies of amido-substituted derivatives reveal an unexpected lack of mutagenicity” (1998)

Assays:
Type in all cases: functional, Salmonella enterica subsp. enterica serovar Typhimurium
Salmonella typhimurium [1] = experiment: Bacterial mutagenicity was measured against Salmonella Typhimurium TA1538 at dose range of 0-200 ug/plate
Salmonella typhimurium [2] = experiment: Bacterial mutagenicity was measured against Salmonella Typhimurium TA97a at dose range of 0-400 ug/plate
Salmonella typhimurium [3] = experiment: Bacterial mutagenicity was measured against Salmonella Typhimurium TA98 at dose range of 0-20 ug/plate
Salmonella typhimurium [4] = experiment: Bacterial mutagenicity was measured against Salmonella Typhimurium TA1538 at dose range of 0-5 ug/plate
Salmonella typhimurium [5] = experiment: Bacterial mutagenicity was measured against Salmonella Typhimurium TA98 at dose range of 0-10 ug/plate

Row | SMILES | Slope (Salmonella typhimurium [1]) [mutants ug-1] | Slope (Salmonella typhimurium [2]) [mutants ug-1] | Slope (Salmonella typhimurium [3]) [mutants ug-1] | Slope (Salmonella typhimurium [4]) [mutants ug-1] | Slope (Salmonella typhimurium [5]) [mutants ug-1]
1 | C(=N\NC1=NCCN1)/c1c2ccccc2c(/C=N/NC2=NCCN2)c2ccccc12 [BISANTRENE] | 0.2 | 1.83 | 0.33 |  | 
2 | O=C1c2c(O)ccc(O)c2C(=O)c2c(NCCNCCO)ccc(NCCNCCO)c21 [MITOXANTRONE] |  | 0.01 |  | 3.52 | 3.04
